≈ marks a conversion by molar mass, not a printed value. Read-outs that look alike come from different tables or passages of the source.
Assays:
[1] = test system: Canadida albicans ATCC 64550; test: In vitro antifungal activity, MIC by broth microdilution (Candida species); assay type: cell-based; settings: ATCC64550, lowest concentration causing at least 80% growth inhibition, RPMI1640 pH 7.0, 35° C., 24-72 hours, read-out: MIC value C.a. (1)
Protocol: (§1) The antifungal activities of test compounds were assessed according to their minimum inhibitory concentrations (MICs) which were measured by the methods described below.
(§2) 1(i) Measurement Method for Candida Species
(§3) A modified version of the procedure described in Japanese Journal of Medical Mycology, 36, 62 (1995) was used, MICs being determined by the broth microdilution method. Each test compound was dissolved in dimethyl sulfoxide (DMSO). Serial two-fold dilutions of each compound were prepared with DMSO and then final dilutions were prepared with RPMI1640 medium (product of Dainippon Pharmaceutical Co., Ltd.) which was buffered to pH 7.0 with 0.165 M 3-(morpholino)propanesulfonic acid (MOPS). […] Colonies of the test fungi were suspended in physiological saline followed by adjustment to 5.0×10^2 to 2.5×10^3 cells/ml with RPM11640 medium which was buffered to pH 7.0 with 0.165 M MOPS. 100 μl of the fungal suspension were added to each of the wells of microtitre plates and then 100 μl of each diluted test compound were added to one of said wells and mixed with the fungal suspension therein, before incubating at 35° C. for 24-72 hours. […] The MICs were defined as the lowest compound concentrations causing at least 80% growth inhibition when compared with the control.
b) C.a. (1): Canadida albicans ATCC 64550.

[2] = test system: Canadida albicans TIMM 3164; test: as above; assay type: cell-based; settings: TIMM3164, lowest concentration causing at least 80% growth inhibition, RPMI1640 pH 7.0, 35° C., 24-72 hours, read-out: MIC value C.a. (2)
Protocol: as §1, §2, §3
c) C.a. (2): Canadida albicans TIMM 3164.

[3] = test system: Canadida albicans TIMM 3165; test: as above; assay type: cell-based; settings: TIMM3165, lowest concentration causing at least 80% growth inhibition, RPMI1640 pH 7.0, 35° C., 24-72 hours, read-out: MIC value C.a. (3)
Protocol: as §1, §2, §3
d) C.a. (3): Canadida albicans TIMM 3165.

[4] = test system: Cryptococcus neoformans TIMM 0362; test: In vitro antifungal activity, MIC by broth microdilution (Cryptococcus neoformans); assay type: cell-based; settings: TIMM0362, lowest concentration causing at least 50% growth inhibition (absorbance 485 nm), yeast nitrogen base pH 7.0, 35° C., 48-72 hours, read-out: MIC value C.n.
Protocol: as §1
1(ii) Measurement Method for Cryptococcus neoformans
A modified version of the Broth Dilution Antifuinal Susceptibility Testing of Yeast; Approved Standard M27-A (Vol. 17, No. 9, June 1997, NCCLS) was used, MICs being determined by the broth microdilution method. Each test compound was dissolved in DMSO. Serial two-fold dilutions of each compound were prepared with DMSO and final dilutions were prepared with yeast nitrogen base medium (product of Difco Laboratories) buffered to pH 7.0 with 0.165 M MOPS. […] Colonies of the test fungi were suspended in physiological saline followed by adjustment to 5.0×10^3 to 2.5×10^4 cells/ml with yeast nitrogen base medium buffered to pH 7.0 with 0.165 M MOPS. 100 μl of the fungal suspension were added to each of the wells of microtitre plates and then 100 μl of each diluted test compound were added to one of said wells and mixed with the fungal suspension therein, before incubating at 35° C. for 48-72 hours. […] The MICs were defined as the lowest compound concentrations causing at least 50% growth inhibition when compared with the control as measured by light absorbance at 485 nm.
e) C.n.: Cryptococcus neoformans TIMM 0362.

[5] = test system: Aspergillus fumigatus SANK 10569; test: In vitro antifungal activity, MIC by broth microdilution (Aspergillus species); assay type: cell-based; settings: SANK10569, lowest concentration causing at least 80% growth inhibition, RPMI1640 pH 7.0, 30° C., 24-72 hours, read-out: MIC value A.f.
Protocol: The antifungal activities of test compounds were assessed according to their minimum inhibitory concentrations (MICs) which were measured by the methods described below. 1(iii) Measurement Method for Aspergillus Species A modified version of the protocol in Antimicrob. Agents Chemother., 39, 314 (1995) was used, MICs being determined by the broth microdilution method. Test compounds were dissolved in dimethyl sulfoxide (DMSO). Serial two-fold dilutions of each compound were prepared with DMSO and then final dilutions were prepared with RPMI1640 medium (product of Dainippon Pharmaceutical Co., Ltd.) buffered to pH 7.0 with 0.165 M MOPS.

[6] = Acid stability test (half-life in 0.01 N HCl); assay type: physicochemical; settings: 0.01 N HCl (pH 2.0), initial 50 μg/ml, 37° C., HPLC, read-out: t1/2, stability in acidic solution
Protocol: A small amount of the solution was taken from the reaction solution at predetermined time intervals and the reaction was stopped in these samples by neutralizing with an aqueous sodium hydroxide solution. Quantitative determination of the residual rate of the test compound in the solution was determined by HPLC.
The half-life (t½) of the test compound in 0.01 N HCl was determined according to the following equation using the degradation rate constant kdeg which was determined by semi-logarithmic regression analysis of the residual rate in the solution.

[7] = Oral absorption rate (bioavailability) in SD rats; assay type: in vivo; settings: rat, blood; fasted SD rats; oral 20 mg/kg vs intravenous 2 mg/kg in PEG 400; AUCpo(0-48 h)/AUCiv(0-∞), dose-corrected; read-out: BA (bioavailability)
Protocol: A test compound in polyethylene glycol 400 (PEG 400) was administered either orally (4 animals) or intravenously into the caudal vein (3 animals) of SD rats (age 7 weeks) which had fasted overnight. The oral dose of the test compound was 20 mg per kg of rat body weight. The intravenous dose of the test compound injected into the caudal vein was 2 mg per kg of rat body weight. The amount of PEG 400 used was 1 ml per kg of rat body weight for both oral and intravenous administration. The bioavailability (BA) values were calculated according to the following equation using the integrated values of the blood concentration of the test compound up to 48 hours after oral administration [AUCpo(0-48 h)], and the integrated values of the blood concentration extrapolated from 0 to infinite time after intravenous administration into the caudal vein [AUCiv(0-∞)].
BA(%)={[(AUCpo(0-48))/(dosepo)]/[(AUCiv(0-∞))/(doseiv)]}×100
The larger the value of BA, the higher the oral absorption rate. The results for the compound of formula (Ib) of the present invention and those for Comparative Compounds A, B and C are shove in Table 3.

[8] = 0.01 N hydrochloric acid with 30% acetonitrile

| MIC [1] [µg/mL] | MIC [2] [µg/mL] | MIC [3] [µg/mL] | MIC [4] [µg/mL] | MIC [5] [µg/mL] | half-life at 50 μg/ml [6, 8] [min] | bioavailability [7] [%] | half-life at 50 μg/ml ([6]; buffer, 30% acetonitrile) [min] | SMILES |
| --- | --- | --- | --- | --- | --- | --- | --- | --- |
| 0.5 (≈ 0.934 µM) | 0.031 to 0.063 (≈ 0.0579 to 0.118 µM) | 0.125 to 0.25 (≈ 0.233 to 0.467 µM) | ≤ 0.008 | 0.125 (≈ 0.233 µM) | 1.54 | 6.24 |  | C[C@@H](S[C@H]1CO[C@H](/C=C/C=C/c2ccc(F)cc2F)OC1)[C@](O)(Cn1cncn1)c1ccc(F)cc1F [Comparative Compound (B)] |
|  |  |  |  |  | 2.42 | 57.8 |  | CC(C[C@H]1CO[C@H](/C=C/C=C/c2ccc(C#N)cc2F)OC1)C(O)(Cn1cncn1)c1ccc(F)cc1F (some centres unmarked) [Comparative Compound (C)] |
| 0.5 to 1 (≈ 0.953 to 1.91 µM) | 0.016 (≈ 0.0305 µM) | 0.125 to 0.25 (≈ 0.238 to 0.477 µM) | 0.016 (≈ 0.0305 µM) | 0.031 (≈ 0.0591 µM) | 3.12 | 50.7 |  | C[C@@H](S[C@H]1CO[C@H](/C=C/C=C/c2ccc(C#N)cc2)OC1)[C@](O)(Cn1cncn1)c1ccc(F)cc1F [Comparative Compound (A), (2R,3R)-3-[[trans-2-[(1E,3E)-4-(4-Cyanophenyl)-1,3-butadien-1-yl]-1,3-dioxan-5-yl]thio]-2-(2,4-difluorophenyl)-1-(1H-1,2,4-triazol-1yl)-2-butanol] |
| 0.25 (≈ 0.461 µM) | ≤ 0.008 | 0.063 (≈ 0.116 µM) | ≤ 0.008 | 0.031 (≈ 0.0571 µM) |  | 123 | 6.4 | C[C@@H](S[C@H]1CO[C@H](/C=C/C=C/c2ccc(C#N)cc2F)OC1)[C@](O)(Cn1cncn1)c1ccc(F)cc1F [Compound (Ib), (2R,3R)-3-[[trans-2-[(1E,3E)-4-(4-Cyano-2-fluorophenyl)-1,3-butadien-1-yl]-1,3-dioxan-5-yl]thio]-2-(2,4-difluorophenyl)-1-(1H-1,2,4-triazol-1-yl)-2-butanol] |
